According to article PMC10804407, “Rombocin, a Short Stable Natural Nisin Variant, Displays Selective Antimicrobial Activity against Listeria monocytogenes and Employs a Dual Mode of Action to Kill Target Bacterial Strains” (ACS Synthetic Biology, 2024):
Values after ≈ are worked out from the molar mass of the structure shown.

What was measured:
[1] = Thermal stability by residual antimicrobial activity; type: physicochemical; conditions: residual antimicrobial activity vs L. lactis 1363, agar well, triplicate
Description: To investigate the impact of proteolytic enzymes, pH, and temperature on the antimicrobial activity, a representative strain of L. lactis 1363 was utilized. For the proteolytic enzyme assay, 40 μL of peptide (1 mg/mL) was incubated with or without final concentrations of 1 mg/mL proteolytic enzymes at room temperature for 3 h, followed by an activity test in the agar well. To determine pH stability, the pH was adjusted to 2, 4, 7, and 10 using 1 M HCl or NaOH. The temperature stability was assessed by incubating the peptide at 22, 50, 70, and 90 °C for a specified duration. All experiments were performed in triplicate.
Overnight cultures of the test strains were inoculated at a final concentration of 0.1% (v/v) into melted LB agar at 45 °C and then poured onto plates. After solidification, 8 mm wells were created and filled with 40 μL of the lantibiotic solution (1 mg/mL). The lantibiotics were activated by adding 5 μL of NisP directly to the well. The plates were then incubated overnight at 30 °C, and the zone of inhibition was measured. Zone diameters were calculated by subtracting the area of the well (πr^2) from the area of the zone (πr^2) and reported in millimeters. To determine the peptide concentration, purified and lyophilized peptides were resuspended in 0.05% aqueous acetic acid solution and quantified by HPLC following the protocol described by Schmitt et al.[44] […]

L. lactis MG1363 = assay: Time-kill assay; type: cell-based, Lactococcus lactis; conditions: 5-fold MIC
Description: The bactericidal activity of nisin, nisin(1–22), and rombocin was evaluated according to a previously described procedure based on Guo et al.[38] Briefly, an overnight culture of L. lactis MG1363 was diluted 50-fold in GM17 medium and incubated at 30 °C. The bacteria were grown until reaching an optical density at 600 nm (OD600) of 0.5, at which point the cell concentration was adjusted to 5 × 10^5 CFU/mL. Subsequently, the bacteria were challenged with a 5-fold MIC of each peptide. A control sample of an untreated cell suspension was included. At specific time points, 50 μL aliquots were collected, and undiluted and 10-fold serially diluted suspensions were plated on GM17 agar. The plates were incubated overnight at 30 °C, and the resulting colonies were counted and calculated as colony-forming units per milliliter (CFU/mL). Both assays were performed in triplicate to ensure reproducibility.

[2] = tested on: S. aureus LMG15975 (MRSA); type: cell-based, Staphylococcus aureus; conditions: LMG15975
Description: (§1) Each experiment was performed in triplicate.

S. aureus LMG10147 = type: cell-based, Staphylococcus aureus; conditions: LMG10147
Description: as §1

L. lactis = assay: Membrane potential determination (DiSC3(5) probe); type: cell-based, Lactococcus lactis; conditions: 5× MIC, 10 mM HEPES with 10 mM glucose pH 7.2, 2 μM DiSC3(5), 25 min
Description: To measure the membrane potential, the membrane potential-sensitive fluorescent dye DiSC3(5) was utilized. L. lactis was cultured to an OD600 of 0.8, pelleted at 5000g for 5 min, and washed twice in 10 mM HEPES with 10 mM glucose (pH 7.2). The cell density was adjusted to an OD600 of 0.2 and loaded with 2 μM DiSC3(5) dye, followed by 20 min of incubation in the dark to stabilize the probe fluorescence. Next, the cell suspension was added to a 96-well microplate and incubated for 5 min with 100 mM KCl. […] The fluorescence spectrometer’s excitation and emission wavelengths were adjusted to 622 and 670 nm, respectively. Three technical replicates were performed, and the representative example is shown.

[3] = Spot-on-lawn assay, peptide-lipid II complex formation; type: binding, Lactococcus lactis; conditions: L. lactis MG1363, purified lipid II 300 μM, 2 μL at edge of halo, overnight 30 °C
Description: To evaluate the binding of peptide and lipid II or lipoteichoic acid (LTA), an overnight cultured L. lactis MG1363 was added to 0.8% GM17 (w/v, temperature 45 °C) at a final concentration of 0.1% (v/v), and then, the mixture was poured onto 10 mL plates. The binding of peptide and lipid II or LTA was further evaluated by spotting of purified lipid II (300 μM, 2 μL) or LTA (1 mg/mL, 2 μL) to the edge of the inhibition halo of antibiotics. Briefly, antimicrobials were loaded to the agar plate. After the antimicrobial solution drops had dried, lipid II or LTA was spotted to the edge of inhibition halo of antimicrobials. The plates were then incubated overnight at 30 °C after the drops had dried.

[4] = tested on: E. faecium LMG16003 (VRE); type: cell-based, Enterococcus faecium; conditions: LMG16003
Description: as §1

E. faecium LMG11423 = type: cell-based, Enterococcus faecium; conditions: LMG11423
Description: as §1

L. monocytogenes TT82E = type: cell-based, Listeria monocytogenes; conditions: TT82E
Description: as §1

L. monocytogenes LK132 = type: cell-based, Listeria monocytogenes; conditions: LK132
Description: as §1

[5] = tested on: L. monocytogenes LMG10470; type: cell-based, Listeria monocytogenes; conditions: LMG10470
Description: as §1

With `C=C1NC(=O)[C@H]([C@@H](C)CC)NC(=O)C(NC(=O)C(=CC)NC(=O)[C@@H](N)[C@@H](C)CC)CSC[C@@H](C(=O)NC2C(=O)N[C@@H](C)C(=O)NCC(=O)N[C@H](C(=O)N[C@H](C(=O)NC3C(=O)NCC(=O)N[C@@H](C(C)C)C(=O)N[C@@H]([C@@H](C)CC)C(=O)N[C@@H](CCSC)C(=O)NC(=CC)C(=O)N[C@H](C(=O)N[C@@H](CCSC)C(=O)NC4CSC[C@@H](C(=O)N[C@@H](CCCCN)C(=O)O)NC(=O)CNC(=O)[C@H](CC(N)=O)NC4=O)CSC3C)[C@@H](C)CC)CSC2C)NC(=O)[C@H](CC(C)C)NC1=O` (stereo partly shown) [rombocin A] the “incubation time to complete loss of activity” value ([1]; 90 °C) was 7 h, the reduction in activity ([1]; temperatures between 22 and 50 °C, up to 10 h) was “less than 30%” and the “time to complete killing” value (L. lactis MG1363; L. lactis MG1363, 5 × 10^5 CFU/mL, CFU counting, triplicate) was 18 h. The “bacteriostatic or bactericidal activity” value (L. lactis MG1363; L. lactis, time-dependent killing) was “strong bactericidal activity”, the MIC [2] was 100 µg/mL (≈ 42 µM) and the MIC (S. aureus LMG10147) was 100 µg/mL (≈ 42 µM). The “membrane depolarization (DiSC3(5) fluorescence)” value (L. lactis) was “significant membrane depolarization”, the “binding to lipid II (effect of spotted lipid II on the inhibition halo)” value [3] was “reduction in the antimicrobial activity against L. lactis” and the MIC [4] was 100 µg/mL (≈ 42 µM). For the same compound, the MIC (E. faecium LMG11423) was 100 µg/mL (≈ 42 µM), the MIC (L. monocytogenes TT82E) was 12,5 μg/mL and the MIC (L. monocytogenes LK132) was 25 µg/mL (≈ 10.5 µM). The MIC [5] was 25 µg/mL (≈ 10.5 µM).
